The source of these data is US10898613B2, “Hyaluronic acid gel with a divalent zinc cation” (Nestlé Skin Health SA, priority 2016, dated 2021).

Series [1] is described as follows: Rheology (elastic modulus G′ within the LVR) of HA gel formulations after autoclaving. Format: physicochemical. The following applies: after autoclaving (F0~19); 1 mM Zn salt, HA 20 mg/mL. The method, then: The rheological properties of the formulations were analyzed using an Ahres G2 reometer (measure system PP 40, gap 1.00 mm). Initially a strain sweep was made to find the linear viscoelastic region (LVR) and then the viscoelastic properties were measured within the LVR.

Series [2] in a line: Zinc release from gels, USP-paddle apparatus with gel containers, Zn content by ICP. Particulars: zinc released from HA gels of Example 4 with 1 mM zinc salt; 600 ml release medium, 30 rpm, 37° C. Type of series: physicochemical. As to the method:
The zinc release from the gels was measured by the USP-paddle apparatus using special gel containers in which the gel was placed. A gel containing 1 mM ZnCl2 was manufactured according to Example 1. The gel was filled into 7 gel containers with a fixed volume of 1 ml. The geometry of the filled gel was a cylinder […] in diameter and 3 mm deep. The gels were covered by a mesh-size plastic net (PA80 m=200 mesh, AB Derma) and a coarse stainless steel net, care was taken to assure that no air was trapped between the gel and the plastic net.
Each gel container was immersed in 600 ml thermostated release medium, stirred at 30 rpm and maintained at 37° C. using a Distek Evolution 6100 (North Brunswick, N.J.). At predetermined time points, gel containers were removed and the Zn content in the container was determined using ICP.
Gels prepared according to example 4 containing zinc chloride (1 mM), zinc gluconate (1 mM) and zinc citrate (1 mM) respectively were analyzed as described in Example 7.

On to `O=C([O-])CC(O)(CC(=O)[O-])C(=O)[O-].O=C([O-])CC(O)(CC(=O)[O-])C(=O)[O-].[Zn+2].[Zn+2].[Zn+2]` [zinc citrate], for which, in series [1], the “Effect of Zn on G′ of the gel versus reference swelled in buffer only” value is “stabilizing effect”. Moreover, the “time for 25% released” value in series [2] is roughly 3 h.
In the case of zinc gluconate, the “Effect of Zn on G′ of the gel versus reference swelled in buffer only” value in series [1] is given as “stabilizing effect”. In addition, the “time for 25% released” value in series [2] was roughly 24 h.
Regarding `[Cl-].[Cl-].[Zn+2]` [zinc chloride], the “Effect of Zn on G′ of the gel versus reference swelled in buffer only” value in series [1] was “stabilizing effect”. In series [2], the “time for 25% released” value is roughly 75 h.
